Experimental data published in ChEMBL document CHEMBL1201862, “PubChem BioAssay data set” (2004).
Values belong to the molecule of their own block, whether it stands above or below them. Active and inactive are the calls of the source.

What was measured:
[1] = molecular target: Genome polyprotein (dengue virus type 2, UniProt P29990); assay: Dengue-2 NS5 methyltransferase inhibitors, primary screen, biochemical, confirmation dose response (AID 588689); type: functional
[2] = molecular target: Envelope glycoprotein gp160 (Human immunodeficiency virus 1, UniProt Q6QLK5); assay: inhibitors of HIV fusion peptide binding, primary screen, biochemical, uHTS, fluorescence dequenching (AID 1986)
Sequence of Envelope glycoprotein gp160 (Q6QLK5 whole entry, the tested form may be a part): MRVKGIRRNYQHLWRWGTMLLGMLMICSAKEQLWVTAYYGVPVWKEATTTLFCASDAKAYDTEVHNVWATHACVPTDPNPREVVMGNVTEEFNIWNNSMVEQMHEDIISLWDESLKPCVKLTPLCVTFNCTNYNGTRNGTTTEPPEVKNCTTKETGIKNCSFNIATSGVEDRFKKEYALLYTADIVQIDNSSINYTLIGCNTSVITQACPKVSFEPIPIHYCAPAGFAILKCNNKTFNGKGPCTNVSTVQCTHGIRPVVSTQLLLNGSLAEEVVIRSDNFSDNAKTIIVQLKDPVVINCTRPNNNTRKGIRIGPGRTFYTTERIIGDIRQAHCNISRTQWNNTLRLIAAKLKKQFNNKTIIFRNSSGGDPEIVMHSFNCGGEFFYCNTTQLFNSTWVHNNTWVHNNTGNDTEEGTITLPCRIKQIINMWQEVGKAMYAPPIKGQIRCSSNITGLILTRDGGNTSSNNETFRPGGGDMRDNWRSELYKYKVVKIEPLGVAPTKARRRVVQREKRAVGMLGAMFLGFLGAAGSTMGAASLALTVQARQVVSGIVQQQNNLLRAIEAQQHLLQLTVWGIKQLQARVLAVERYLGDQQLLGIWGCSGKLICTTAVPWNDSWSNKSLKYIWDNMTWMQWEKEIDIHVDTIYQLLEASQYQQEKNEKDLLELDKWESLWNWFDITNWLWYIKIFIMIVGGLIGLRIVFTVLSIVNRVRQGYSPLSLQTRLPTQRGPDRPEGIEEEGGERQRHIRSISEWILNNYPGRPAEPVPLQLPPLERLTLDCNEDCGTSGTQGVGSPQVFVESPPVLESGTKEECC

[3] = molecular target: T1, Rac GTPase-activating protein 1 (Homo sapiens, UniProt Q9H0H5); assay: MgcRacGAP GTPase-activating activity inhibitors, confirmation, biochemical, ADP Hunter fluorescence, primary and confirmatory (AID 624330); type: functional
T1 sequence (Q9H0H5 whole entry): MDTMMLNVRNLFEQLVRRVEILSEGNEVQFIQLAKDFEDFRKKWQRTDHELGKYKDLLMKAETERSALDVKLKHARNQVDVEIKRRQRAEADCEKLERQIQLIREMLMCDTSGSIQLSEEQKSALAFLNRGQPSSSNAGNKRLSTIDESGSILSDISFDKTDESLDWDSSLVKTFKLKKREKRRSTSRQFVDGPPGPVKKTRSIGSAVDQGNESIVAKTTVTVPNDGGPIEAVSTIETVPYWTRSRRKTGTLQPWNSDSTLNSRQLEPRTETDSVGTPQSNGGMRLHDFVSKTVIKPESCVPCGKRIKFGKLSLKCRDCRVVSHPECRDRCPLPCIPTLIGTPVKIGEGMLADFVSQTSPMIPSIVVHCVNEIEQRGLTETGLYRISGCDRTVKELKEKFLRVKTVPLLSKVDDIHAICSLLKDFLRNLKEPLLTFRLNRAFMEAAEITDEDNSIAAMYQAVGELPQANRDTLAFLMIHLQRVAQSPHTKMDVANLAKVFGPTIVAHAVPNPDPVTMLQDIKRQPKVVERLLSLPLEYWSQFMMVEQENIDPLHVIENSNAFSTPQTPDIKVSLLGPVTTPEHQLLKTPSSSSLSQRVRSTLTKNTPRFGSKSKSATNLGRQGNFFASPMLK

[4] = molecular target: T2, Type-1 angiotensin II receptor (Homo sapiens, UniProt P30556); assay: AT1 receptor agonists, dose response, selectivity assay for APJ receptor agonist project, cell-based, uHTS hits (AID 488865); type: functional;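 note: beta-arrestin recruitment to AT1 measured by enzyme fragment complementation luminescence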
T2 sequence (P30556 whole entry): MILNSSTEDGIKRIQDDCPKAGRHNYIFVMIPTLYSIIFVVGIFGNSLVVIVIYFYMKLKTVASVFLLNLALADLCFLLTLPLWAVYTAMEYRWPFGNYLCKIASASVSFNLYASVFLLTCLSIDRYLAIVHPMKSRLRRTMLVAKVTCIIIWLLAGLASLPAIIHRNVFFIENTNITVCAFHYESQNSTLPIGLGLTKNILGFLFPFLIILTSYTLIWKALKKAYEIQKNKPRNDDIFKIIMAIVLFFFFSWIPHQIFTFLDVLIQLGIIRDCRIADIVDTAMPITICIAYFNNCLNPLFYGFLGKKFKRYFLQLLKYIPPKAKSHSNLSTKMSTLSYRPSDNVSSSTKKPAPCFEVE

[5] = molecular target: Phospholipase A2 (Homo sapiens, UniProt P04054); type: functional;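 note: confirmatory dose-response counterscreen on phospholipase A2, testing hits that came from an ultra-high-throughput screen for ATG4B inhibitors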
Sequence of Phospholipase A2 (P04054 whole entry): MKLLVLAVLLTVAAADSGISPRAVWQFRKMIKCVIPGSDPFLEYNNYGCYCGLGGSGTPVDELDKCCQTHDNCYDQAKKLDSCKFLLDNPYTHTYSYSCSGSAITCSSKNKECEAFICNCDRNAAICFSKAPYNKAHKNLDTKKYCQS

[6] = molecular target: G-protein coupled receptor 55 (Homo sapiens, UniProt Q9Y2T6); assay: GPR55 agonists via beta-arrestin recruitment, primary screen, imaging, U2OS cells, beta-arrestin-GFP redistribution (AID 1961); type: functional
Sequence of G-protein coupled receptor 55 (Q9Y2T6 whole entry): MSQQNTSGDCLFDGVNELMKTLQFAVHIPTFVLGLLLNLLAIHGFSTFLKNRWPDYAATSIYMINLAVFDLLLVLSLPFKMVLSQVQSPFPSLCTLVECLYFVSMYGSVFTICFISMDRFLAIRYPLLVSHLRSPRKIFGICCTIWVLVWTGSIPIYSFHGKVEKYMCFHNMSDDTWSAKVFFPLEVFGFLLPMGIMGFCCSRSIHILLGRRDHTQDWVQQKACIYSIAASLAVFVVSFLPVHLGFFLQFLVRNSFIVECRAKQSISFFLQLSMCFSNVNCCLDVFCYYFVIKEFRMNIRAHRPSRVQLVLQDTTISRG

[7] = molecular target: Cytochrome P450 2C9 (Homo sapiens, UniProt P11712)
Sequence of Cytochrome P450 2C9 (P11712 whole entry): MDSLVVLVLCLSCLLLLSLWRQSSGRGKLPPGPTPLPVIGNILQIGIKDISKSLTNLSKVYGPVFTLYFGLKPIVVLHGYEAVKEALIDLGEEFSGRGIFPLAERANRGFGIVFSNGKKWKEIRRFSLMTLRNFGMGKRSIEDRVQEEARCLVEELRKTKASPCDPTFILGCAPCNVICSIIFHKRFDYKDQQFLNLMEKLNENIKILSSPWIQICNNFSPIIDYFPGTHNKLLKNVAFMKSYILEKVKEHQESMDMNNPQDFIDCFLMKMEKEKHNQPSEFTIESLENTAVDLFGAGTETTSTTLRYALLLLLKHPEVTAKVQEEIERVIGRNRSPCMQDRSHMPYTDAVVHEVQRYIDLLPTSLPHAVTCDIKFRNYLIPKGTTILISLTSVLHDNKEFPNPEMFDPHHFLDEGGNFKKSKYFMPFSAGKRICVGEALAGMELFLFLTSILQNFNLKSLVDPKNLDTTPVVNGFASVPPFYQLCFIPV

[8] = molecular target: T3, Cysteine protease ATG4B (Homo sapiens, UniProt Q9Y4P1); type: functional;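 note: Fluorescence-based dose-response confirmation assay measuring inhibition of ATG4B activity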
T3 sequence (Q9Y4P1 whole entry): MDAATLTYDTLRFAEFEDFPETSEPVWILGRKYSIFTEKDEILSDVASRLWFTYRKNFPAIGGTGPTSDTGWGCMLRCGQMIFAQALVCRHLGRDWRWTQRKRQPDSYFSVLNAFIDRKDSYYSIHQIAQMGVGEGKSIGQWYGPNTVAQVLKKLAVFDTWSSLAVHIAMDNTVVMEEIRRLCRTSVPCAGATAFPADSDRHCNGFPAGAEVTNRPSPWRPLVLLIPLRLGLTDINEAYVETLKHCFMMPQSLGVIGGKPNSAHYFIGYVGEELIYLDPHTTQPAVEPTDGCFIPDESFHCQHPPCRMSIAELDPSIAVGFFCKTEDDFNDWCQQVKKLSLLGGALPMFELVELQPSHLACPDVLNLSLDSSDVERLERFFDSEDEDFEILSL

[9] = molecular target: X-box-binding protein 1 (Homo sapiens, UniProt P17861); type: functional, Cricetulus griseus;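 note: confirmatory dose-response counter-screen serving a CHOP assay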
Sequence of X-box-binding protein 1 (P17861 whole entry): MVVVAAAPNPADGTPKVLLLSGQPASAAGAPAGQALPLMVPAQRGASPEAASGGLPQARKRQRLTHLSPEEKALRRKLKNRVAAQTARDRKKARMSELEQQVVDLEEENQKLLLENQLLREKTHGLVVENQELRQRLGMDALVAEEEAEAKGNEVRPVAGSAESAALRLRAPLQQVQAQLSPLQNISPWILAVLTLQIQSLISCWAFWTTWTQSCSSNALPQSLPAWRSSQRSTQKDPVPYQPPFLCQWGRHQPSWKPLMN

[10] = inhibitors of SNCA 5'UTR-driven reporter translation, confirmation, H4 neuroglioma cells, luminescence (AID 1988); type: functional, cell-based
[11] = inhibitors of firefly luciferase expression or activity, dose response, H4 neuroglioma cells, luminescence (AID 1990); type: functional, cell-based

Sequence of Genome polyprotein (P29990 2492-3391 limits assumed): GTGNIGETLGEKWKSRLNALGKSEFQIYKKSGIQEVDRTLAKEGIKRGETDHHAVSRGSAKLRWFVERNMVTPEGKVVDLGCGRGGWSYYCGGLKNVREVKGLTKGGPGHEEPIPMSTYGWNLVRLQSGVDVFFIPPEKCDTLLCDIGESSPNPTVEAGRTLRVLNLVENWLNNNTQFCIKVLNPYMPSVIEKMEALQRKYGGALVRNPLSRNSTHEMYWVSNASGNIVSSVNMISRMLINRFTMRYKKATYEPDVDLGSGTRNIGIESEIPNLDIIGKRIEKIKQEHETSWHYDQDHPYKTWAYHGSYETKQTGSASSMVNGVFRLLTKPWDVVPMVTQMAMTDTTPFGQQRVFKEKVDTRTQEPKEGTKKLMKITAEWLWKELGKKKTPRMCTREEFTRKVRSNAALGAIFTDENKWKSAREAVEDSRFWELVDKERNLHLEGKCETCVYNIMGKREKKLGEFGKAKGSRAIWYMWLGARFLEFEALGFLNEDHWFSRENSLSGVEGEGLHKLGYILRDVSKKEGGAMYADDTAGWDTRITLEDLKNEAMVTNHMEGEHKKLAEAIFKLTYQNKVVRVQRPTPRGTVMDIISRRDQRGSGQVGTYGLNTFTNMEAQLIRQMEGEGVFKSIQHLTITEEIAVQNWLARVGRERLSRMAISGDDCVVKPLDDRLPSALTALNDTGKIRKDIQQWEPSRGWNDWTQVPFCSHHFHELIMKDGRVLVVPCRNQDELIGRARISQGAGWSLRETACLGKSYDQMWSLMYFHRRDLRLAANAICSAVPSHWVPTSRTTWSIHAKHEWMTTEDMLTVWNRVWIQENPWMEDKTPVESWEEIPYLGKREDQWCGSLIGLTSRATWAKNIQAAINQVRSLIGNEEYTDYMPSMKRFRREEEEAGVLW

Structure (SMILES): CN1C(=O)/C(=C/c2ccc(C(=O)Nc3ccc(O)cc3C(=O)O)cc2)SC1=S
IC50 [1]: 31.8 µM (active)
IC50 [2]: 11.3 µM (active)
IC50 [3]: 55.1 µM (active)

EC50 [4]: > 100 µM (inactive)
Structure (SMILES): CC1CCN(S(=O)(=O)c2ccc3nc(N4CCN(c5ccccc5)CC4)ccc3c2)CC1

IC50 [5]: 3.11 µM (active)
EC50 [6]: 4.7 µM (active)
AC50 [7]: 2 µM (inconclusive)
IC50 [8]: 7.86 µM (active)
Structure (SMILES): COc1cc(/C=C2/C(=N)N3C=CSC3=NC2=O)ccc1OCCCOc1c(C)cccc1C

Structure (SMILES): CC(C)Cn1c(=O)c2ccccc2n2c(SCC(=O)N3c4ccccc4CC3C)nnc12 (stereo unspecified)
Absolute IC50 (XBP1) [9]: 10 µM
EC50 [10]: > 120 µM (not active)
EC50 [11]: 36 µM (active)
